Data as given in PMC5352051, “Identification of a novel Polo-like kinase 1 inhibitor that specifically blocks the functions of Polo-Box domain” (Oncotarget, 2016).

Assays:
[1] = tested on: Plk1, Cyclin B1 and pHH-3 in HeLa cells; test: Western blot of mitotic markers; assay type: cell-based, human; settings: synchronized HeLa, 50 ng/mL, 16 hrs, control for mitotic arrest
Description: HeLa cells were collected after trypsinization and lysed with RIPA buffer. Equal amount of proteins (30 μg/lane) were loaded, separated by 15% SDS-PAGE. After blocking with blocking buffer for 2 hrs at RT, the membrane was incubated with the following primary antibodies diluted in blocking buffer overnight at 4°C: anti-hPlk1 mouse monoclonal antibody (Cat# P5998; Sigma; 1:3000), anti-CyclinB1 rabbit polyclonal antibody (Cat# SAB4503501; Sigma; 1:2000), anti-pHH3 rabbit monoclonal antibody (Cat# 04-817; Millipore; 1:2000), anti-GAPDH rabbit polyclonal antibody (Cat# P30008; Abmart; 1:2000). The membrane was washed 3 times and then incubated with Horseradish Peroxidase-conjugated secondary antibodies for 1 hr at RT and visualized with ECL system (Millipore). The level of GAPDH was used as the loading control.

Plk2 PBD = molecular target: T1, Plk2 PBD (Homo sapiens, UniProt Q9NYY3); test: Fluorescence polarization assay, Plk2 PBD / FITC-labeled phosphopeptide; assay type: binding; settings: FP assay, 1 hr preincubation at RT, read-out: Apparent IC50
T1 construct: (326-603 aa), Plk2 (355-685 aa), and Plk3 (335-646 aa); GST (N); made in house; host or cells: E. coli Rosetta BL21(DE3)
T1 sequence (Q9NYY3 355-685): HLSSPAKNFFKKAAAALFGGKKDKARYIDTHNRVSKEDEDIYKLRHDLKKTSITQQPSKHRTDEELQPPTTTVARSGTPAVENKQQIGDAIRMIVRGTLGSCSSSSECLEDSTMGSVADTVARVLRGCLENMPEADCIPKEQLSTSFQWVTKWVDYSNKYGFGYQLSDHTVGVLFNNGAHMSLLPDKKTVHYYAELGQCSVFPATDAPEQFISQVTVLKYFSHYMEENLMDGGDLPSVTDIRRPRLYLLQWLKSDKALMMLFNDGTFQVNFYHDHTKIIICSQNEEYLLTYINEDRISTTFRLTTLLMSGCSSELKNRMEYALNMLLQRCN
Description: FP assay was performed as follow. Briefly, 30 μL Plk1 PBD proteins (400 nM) were incubated with 0.3 μL tested compounds (1 mg/mL) with shaking for 1 hr at room temperature (RT) prior to addition of 30 μL FITC-Poloboxtide (FITC-GPMQSpTPLNG-OH; λex/λem: 485/535 nm; 60 nM) in FP buffer (50 mM Tris-HCl, 10 mM NaCl, 1 mM EDTA pH8.0). Three wells containing 30 μL FITC-Poloboxtide (60 nM) and 30 μL Plk1 PBD (400 nM) were used as negative control (0% inhibition); three wells containing 60 μL FITC-Poloboxtide (30 nM) only were used as positive control (100% inhibition). Fluorescence polarization was analyzed after incubation of FITC-Poloboxtide for 15 min in a 384-well black opaque microplate (Cat# 6007270, PerkinElmer) using Envision Multilabel Reader (PerkinElmer) at 25°C. We calculated the percentage of inhibition for each sample as follows: Inhibition(%)=Negative−Sample/Negative−Positive×100%
We plotted the inhibition values and determined IC50 using GraphPad Prism5.0. Together with the FITC-labeled peptides used for Plk1 PBD as mentioned above, the following peptides were used for specificity assays, FITC-GPMQTSpTPKNG-OH (Plk2 PBD), FITC-GPLATSpTPKNG-OH (Plk3 PBD). As described above for the FP assay, proteins were used at the following final concentrations: Plk1 PBD, 200 nM; Plk2 PBD, 450 nM; Plk3 PBD, 600 nM. All FITC-labeled peptides were chemically synthesized (China Peptides Co., Ltd., Shanghai) and further verified by mass spectrometry, and the purity is more than 95.0%.

Plk3 PBD = molecular target: T2, Plk3 PBD (Homo sapiens, UniProt Q9H4B4); test: Fluorescence polarization assay, Plk3 PBD / FITC-labeled phosphopeptide; assay type: binding
T2 construct: (326-603 aa), Plk2 (355-685 aa), and Plk3 (335-646 aa); GST (N); made in house; host or cells: E. coli Rosetta BL21(DE3)
T2 sequence (Q9H4B4 335-646): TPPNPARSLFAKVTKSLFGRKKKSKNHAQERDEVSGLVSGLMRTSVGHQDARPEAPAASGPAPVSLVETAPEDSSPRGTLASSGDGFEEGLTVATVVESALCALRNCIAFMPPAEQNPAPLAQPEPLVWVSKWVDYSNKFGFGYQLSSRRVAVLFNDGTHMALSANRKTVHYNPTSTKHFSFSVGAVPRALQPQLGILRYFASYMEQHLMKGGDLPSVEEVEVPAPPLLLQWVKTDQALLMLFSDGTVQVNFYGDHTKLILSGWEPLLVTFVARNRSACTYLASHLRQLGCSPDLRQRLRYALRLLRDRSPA
Description: FP assay was performed as follow. […] We calculated the percentage of inhibition for each sample as follows: Inhibition(%)=Negative−Sample/Negative−Positive×100%
We plotted the inhibition values and determined IC50 using GraphPad Prism5.0. Together with the FITC-labeled peptides used for Plk1 PBD as mentioned above, the following peptides were used for specificity assays, FITC-GPMQTSpTPKNG-OH (Plk2 PBD), FITC-GPLATSpTPKNG-OH (Plk3 PBD).

With `COC(=O)Nc1nc2ccc(C(=O)c3cccs3)cc2[nH]1` [Nocodazole, reference compound] the “mitotic markers (Plk1, Cyclin B1, pHH-3) protein levels” value [1] was “increase of protein levels”.
With `CC1=CC(=O)C(C(C)C)=C/C1=N/OC(=O)c1ccccc1C` [Poloxin, reference compound] the IC50 (Plk2 PBD) was 15.6 ± 2.26 µM.
With `CC1=CC(=O)C(C(C)C)=CC1=O` [TQ, Thymoquinone, reference compound] the IC50 (Plk2 PBD) was 3.65 ± 0.96 µM and the IC50 (Plk3 PBD) was 18.9 ± 1.32 µM.
